In patent US20020045641A1, “Multiple heteroatom containing heterocyclic ring compounds substituted with carboxylic acids and isosteres thereof” (priority 1998, published 2002):

Test system: dopaminergic neurons
Experiment: MPTP Model of Parkinson's Disease in Mice
Assay type: in vivo
Conditions: recovery of TH-stained dopaminergic neurons in striatum; MPTP 30 mg/kg i.p. 5 days; test compound 4 mg/kg s.c., concurrent dosing paradigm
Method: MPTP lesioning of dopaminergic neurons in mice is used as an animal model of Parkinson's Disease. Four week old male CD1 white mice are dosed i.p. with 30 mg/kg of MPTP for 5 days. Test compounds (4 mg/kg), or vehicle, are administered s.c. along with the MPTP for 5 days, as well as for an additional […] following cessation of MPTP treatment. At 18 days following MPTP treatment, the animals are sacrificed and the striata dissected and perfusion-fixed. Immunostaining is performed on saggital and coronal brain sections using anti-tyrosine hydroxylase […] to quantitate survival and recovery of dopaminergic neurons. In animals treated with MPTP and vehicle, a substantial loss of functional dopaminergic terminals is observed as compared to non-lesioned animals. Lesioned animals receiving test compounds show a significant recovery of TH-stained dopaminergic neurons. This model presents quantitation for the recovery of TH-positive dopaminergic neurons in the striatum of animals receiving the compounds of the present invention. […]
Percent striatal innervation density was quantitated in brain sections with an anti-tyrosine hydroxylase immunoglobulin, which is indicative of functional dopaminergic neurons. […]

CCC(C)(C)C(=O)C(=O)N1CCS[C@H]1C(=O)O [Compound L, (2S) -1-(3,3-dimethyl-1,2-dioxopentyl) -3-thiazolidine-2-carboxylic acid]
% Recovery: 14.0%
